We go through two molecules from US10072122B2, “Carbonate polymer containing a functional group of disulfide five-membered ring in the side chain and application thereof” (BrightGene Bio-Medical Technology Co., Ltd, priority 2014, dated 2018).

The subject of data set [1] is B16 melanoma tumor. Nature of the data set: biodistribution in mice bearing melanoma tumors. The format is in vivo, C57BL/6 mice. Conditions: i.v. 10 mg/kg DOX. The procedure: Mice were intravenously injected with nanoparticle loaded drug and DOX (DOX was 10 mg/kg) when the tumor volume reached 100-200 mm^3 about two weeks. The mice were sacrificed at 6, 12 or 24 h and the tumor and organs of heart, liver, spleen, lung and kidney were collected, wet weighed, then 500 μL 1% triton was added, homogenized and extracted by 900 μL DMF solution (containing 1 mM HCl and 20 mM DTT). Taken the supernatant by centrifugation (20000 rpm, 20 min). The DOX level at each time was determined by fluorescence measurement.

The test system of data set [2] is B16 melanoma tumor. Nature of the data set: therapeutic efficacy in mice bearing melanoma tumors. The format is in vivo, C57BL/6 mice. Conditions: DOX 10 mg/kg.
Data set [3] is described as follows: blood circulation of cross-linked nanoparticle loaded drug in mice. The format is in vivo, C57BL/6 mice. To be noted: i.v. 10 mg/kg DOX. On the procedure: (§1) Mice were intravenously injected with nanoparticle loaded drug and free drug, and DOX was 10 mg/kg. 10 μL of blood was taken at different time points of 0, 0.25, 0.5, 1, 2, 4, 8, 12 and 24 h, and the weight of blood was calculated with the method of balance. The blood samples upon withdrawing were immediately dissolved in 100 μL 1% triton and 500 μL of extraction solution DMF (containing 1M HCl and 20 mM DTT). Taken the supernatant by centrifugation (20000 rpm, 20 min). The DOX level in the supernatant of each time was determined by fluorometry.

A short description of data set [4]: biodistribution in mice bearing human glioma cells. The format is in vivo. To be noted: Balb/C, mouse, tumor, iv, i.v. 10 mg/kg DOX, read-out: accumulation of DOX in tumor. The procedure: The mice were sacrificed at 4 h and the tumor and organs of heart, liver, spleen, lung and kidney were collected, wet weighed, then 500 μL 1% triton was added, homogenized and extracted by 900 μL DMF solution (containing 1 mM HCl and 20 mM DTT). Taken the supernatant by centrifugation (20000 rpm, 20 min). The DOX level at each time was determined by fluorescence measurement.

The subject of data set [5] is B16 melanoma tumor. Nature of the data set: therapeutic efficacy of iRGD targeting cross-linked vesicles in mice bearing melanoma tumors. The format is in vivo, C57BL/6 mice. On the procedure: The tumor size was measured every day using calipers from 0 to 20 day.
Data set [6] can be described thus: blood circulation of targeting cross-linked vesicle loaded drug in mice. The format is in vivo, Balb/C mice. To be noted: i.v. 10 mg/kg DOX. The procedure:
as §1, with “The vesicle was formed with different ratio of cRGD-PEG6k-P(CDC4.6k-co-TMC18.6k) and PEG5k-P(CDC4.9k-co-TMC19k). […] Mice” for “Mice”, “targeting vesicle” for “nanoparticle”, “drug cRGD20/CLPs, vesicle loaded drug CLPs, targeting decross-linked vesicle cRGD20/PEG-PTMC” for “drug”, “DOX.HCl as control (the” for “free drug, and”, “mg/kg).” for “mg/kg.”

For another data set, the system named is U87MG human glioma cells. Nature of the data set: therapeutic efficacy in mice bearing human glioma cells.

Molecules are shown by their SMILES. Structures can show the parent of a compound that is named as a salt.

Method for U87MG human glioma cells: Aged 4 to 6 weeks old, weight 18 to 20 g Balb/C mice (Shanghai Institutes for Biological Sciences Laboratory Animal Center) were collected. They were evenly divided into groups after weighting. U87MG human glioma cells of 5×10^6 cells were generated by subcutaneous injection into the hind flank of the mice. Mice were intravenously injected with cRGD20/CLPs, CLPs, targeting decross-linked nanoparticle vesicle (cRGD20/PEG-PTMC), DOX.HCl and PBSat 0, 4, 8.12 day when the tumor volume reached 30 to 50 mm^3 about two weeks, where the DOX proportion was 10 mg/kg. The tumor size was measured every two days using calipers from 0 to 18 day. The tumor size was calculated by V=(L*W*H)/2 (L was length of tumor, W was width of tumor, H was thickness of tumor). Continue to observe the survival of mice until 45 day.

For the molecule `COc1cccc2c1C(=O)c1c(O)c3c(c(O)c1C2=O)C[C@@](O)(C(=O)CO)C[C@@H]3O[C@H]1C[C@H](N)[C@H](O)[C@H](C)O1` [DOX, Doxorubicin], the accumulation in tumor in the data set with B16 melanoma tumor [1] (6 h) was determined as 1.05 ID %/g; with B16 melanoma tumor [1] (12 h), 0.52 ID %/g; in the data set on B16 melanoma tumor [1] (24 h), 0.29 ID %/g. Besides, in the data set on B16 melanoma tumor [2], the tumor growth entry was “can inhibited tumor growth”. Also, the survival rate with B16 melanoma tumor [2] (10 days) was found to be 0. This molecule also showed a body weight reduced in the data set on B16 melanoma tumor [2] (at 7 day) of 23%. Further, the “half-lives of eliminate in mice” value in data set [3] (C57BL/6 mice) is recorded as 0.21 h. Also, in data set [3] (at 2 h), the DOX in blood result is reported as “can not detection”.
In the case of `COc1cccc2c1C(=O)c1c(O)c3c(c(O)c1C2=O)C[C@@](O)(C(=O)CO)C[C@@H]3O[C@H]1C[C@H](N)[C@H](O)[C@H](C)O1` [DOX.HCl, doxorubicin hydrochloride], the tissue uptake at 4 h in data set [4] turned out to be 0.82 %ID/g. Besides, the tumor growth result is given as “can inhibit tumor growth” in the data set on B16 melanoma tumor [5] (10 mg/kg DOX.HCl at 0, 3, 6, 9, 12 day, 20 day) and “can inhibited tumor growth” in the data set on U87MG human glioma cells (10 mg/kg DOX at 0, 4, 8, 12 day, 18 day). Further, the “declining of body weight” value with B16 melanoma tumor [5] (10 mg/kg, at 8 day) is 20%; in the data set with U87MG human glioma cells (10 mg/kg, at 12 day), 21%. Also, the survival rate with B16 melanoma tumor [5] (10 days) and in the data set on U87MG human glioma cells (13 days) was 0 throughout. The DOX in blood result in data set [6] (at 2 h) is listed as “can not detection”. For the same molecule, the half-life in data set [6] (mouse, whole blood, iv, Balb/C mice, read-out: half-lives of eliminate in mice (converted)) is 16.2 min.
